The term IC50 denotes the midpoint of a concentration-inhibition curve.

Chain of p38a activated, mitogen-activated protein kinase-activated protein kinase 2 (MAPKAP-K2 or MK2) enzyme (P49137 whole entry): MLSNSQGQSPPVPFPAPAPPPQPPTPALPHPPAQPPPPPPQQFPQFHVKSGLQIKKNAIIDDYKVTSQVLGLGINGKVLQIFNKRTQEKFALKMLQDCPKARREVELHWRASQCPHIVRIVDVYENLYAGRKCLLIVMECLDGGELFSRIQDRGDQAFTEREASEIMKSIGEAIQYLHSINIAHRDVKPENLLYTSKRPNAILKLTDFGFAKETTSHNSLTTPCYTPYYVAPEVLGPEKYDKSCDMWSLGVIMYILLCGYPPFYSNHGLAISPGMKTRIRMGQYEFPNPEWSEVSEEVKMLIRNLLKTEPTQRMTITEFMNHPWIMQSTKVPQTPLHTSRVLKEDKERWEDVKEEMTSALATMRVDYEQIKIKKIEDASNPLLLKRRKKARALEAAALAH

This assay concerns the target p38a activated, mitogen-activated protein kinase-activated protein kinase 2 (MAPKAP-K2 or MK2) enzyme (Homo sapiens (Human), UniProt P49137). In words: MK2 Omnia continuous-read kinase assay for compound potency. The conditions noted are these: [MK-2]=0.4 nM, [ATP]=10 μM, [ST3-Sox]=10 μM; room temperature. The format is biochemical. In short, it runs like this:
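Continuous Sox-peptide fluorescence read (ex360/em485) every 71 s over 2 h at room temperature. Reactions: 10 μM each of ATP (at apparent Km) and S/T3-Sox, 0.4 nM p38a-activated MK2, pH 7.5 Tris/MgCl2 buffer. Initial rates yield % inhibition and IC50; single-exponential kobs values yield apparent kinact/KI.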
On to `C#Cc1cc(-c2ccc3c(ccc4sc5c(c43)NC[C@@H](C)NC5=O)n2)nc(CO)n1` [Example I-78, (R)-3-(6-ethynyl-2-(hydroxymethyl)pyrimidin-4-yl)-10-methyl-9,10,11,12-tetrahydro-8H-[1,4]diazepino[5′,6′:4,5]thieno[3,2-f]quinolin-8-one], for which the concentration for half-maximal inhibition (IC50) was 1 nM.

As to `C#Cc1ncc(CO)c(-c2ccc3c(ccc4sc5c(c43)NC[C@@H](C)NC5=O)n2)n1` [Example I-79, (R)-3-(2-ethynyl-5-(hydroxymethyl)pyrimidin-4-yl)-10-methyl-9,10,11,12-tetrahydro-8H-[1,4]diazepino[5′,6′:4,5]thieno[3,2-f]quinolin-8-one], the half-inhibitory concentration (IC50) was determined as 568 nM.

As to `C[C@@H]1CNc2c(sc3ccc4nc(-c5cncc(Cl)c5)ccc4c23)C(=O)N1` [Example I-81, (R)-3-(5-chloropyridin-3-yl)-10-methyl-9,10,11,12-tetrahydro-8H-[1,4]diazepino[5′,6′:4,5]thieno[3,2-f]quinolin-8-one], the IC50 worked out at 90 nM.

For `C=Cc1cncc(-c2ccc3c(ccc4sc5c(c43)NC[C@@H](C)NC5=O)n2)c1` [Example I-82, (R)-10-methyl-3-(5-vinylpyridin-3-yl)-9,10,11,12-tetrahydro-8H-[1,4]diazepino[5′,6′:4,5]thieno[3,2-f]quinolin-8-one], the IC50 worked out at 21 nM.

On to `C#Cc1cncc(-c2ccc3c(ccc4sc5c(c43)NC[C@@H](C)NC5=O)n2)c1` [Example I-83, (R)-3-(5-ethynylpyridin-3-yl)-10-methyl-9,10,11,12-tetrahydro-8H-[1,4]diazepino[5′,6′:4,5]thieno[3,2-f]quinolin-8-one], for which the IC50 was 83 nM.

For `C[C@@H]1CNc2c(sc3ccc4nc(-c5cc(CO)nc(Cl)n5)ccc4c23)C(=O)N1` [Example I-84, (R)-3-(2-chloro-6-(hydroxymethyl)pyrimidin-4-yl)-10-methyl-9,10,11,12-tetrahydro-8H-[1,4]diazepino[5′,6′:4,5]thieno[3,2-f]quinolin-8-one], the 50% inhibitory concentration (IC50) came out at 39 nM.

Regarding `C=Cc1nc(CO)cc(-c2ccc3c(ccc4sc5c(c43)NC[C@@H](C)NC5=O)n2)n1` [Example I-85, (R)-3-(6-(hydroxymethyl)-2-vinylpyrimidin-4-yl)-10-methyl-9,10,11,12-tetrahydro-8H-[1,4]diazepino[5′,6′:4,5]thieno[3,2-f]quinolin-8-one], the half-inhibitory concentration (IC50) amounted to 11 nM.

On to `C#Cc1nc(CO)cc(-c2ccc3c(ccc4sc5c(c43)NC[C@@H](C)NC5=O)n2)n1` [Example I-86, (R)-3-(2-ethynyl-6-(hydroxymethyl)pyrimidin-4-yl)-10-methyl-9,10,11,12-tetrahydro-8H-[1,4]diazepino[5′,6′:4,5]thieno[3,2-f]quinolin-8-one], for which the IC50 was 23 nM.

Turning to `C[C@@H]1CNc2c(sc3ccc4nc(-c5cc(CN6CCN(C)CC6)nc(Cl)n5)ccc4c23)C(=O)N1` [Example I-87, (R)-3-(2-chloro-6-((4-methylpiperazin-1-yl)methyl)pyrimidin-4-yl)-10-methyl-9,10,11,12-tetrahydro-8H-[1,4]diazepino[5′,6′:4,5]thieno[3,2-f]quinolin-8-one], the IC50 came out at 283 nM.

Regarding `C=Cc1nc(CN2CCN(C)CC2)cc(-c2ccc3c(ccc4sc5c(c43)NC[C@@H](C)NC5=O)n2)n1` [Example I-88, (R)-10-methyl-3-(6-((4-methylpiperazin-1-yl)methyl)-2-vinylpyrimidin-4-yl)-9,10,11,12-tetrahydro-8H-[1,4]diazepino[5′,6′:4,5]thieno[3,2-f]quinolin-8-one], the IC50 was found to be 15 nM.

On to `C#Cc1nc(CN2CCN(C)CC2)cc(-c2ccc3c(ccc4sc5c(c43)NC[C@@H](C)NC5=O)n2)n1` [Example I-89, (R)-3-(2-ethynyl-6-((4-methylpiperazin-1-yl)methyl)pyrimidin-4-yl)-10-methyl-9,10,11,12-tetrahydro-8H-[1,4]diazepino[5′,6′:4,5]thieno[3,2-f]quinolin-8-one], for which the half-inhibitory concentration (IC50) is 26 nM.

Regarding `C=C(F)c1cccc(-c2ccc3c(ccc4sc5c(c43)NC[C@@H](C)NC5=O)n2)n1` [Example I-90, (R)-3-(6-(1-fluorovinyl)pyridin-2-yl)-10-methyl-9,10,11,12-tetrahydro-8H-[1,4]diazepino[5′,6′:4,5]thieno[3,2-f]quinolin-8-one], the IC50 was determined as 460 nM.

Regarding `C#Cc1cc(-c2ccc3c(ccc4sc5c(c43)NC[C@@H](C)NC5=O)n2)c(OC)nn1` [Example I-91, (R)-3-(6-ethynyl-3-methoxypyridazin-4-yl)-10-methyl-9,10,11,12-tetrahydro-8H-[1,4]diazepino[5′,6′:4,5]thieno[3,2-f]quinolin-8-one], the half-maximal inhibitory concentration (IC50) came to 26 nM.

For `C#Cc1cc(-c2ccc3c(ccc4sc5c(c43)NC[C@@H](C)NC5=O)n2)c(C(F)F)cn1` [Example I-92, (R)-3-(5-(difluoromethyl)-2-ethynylpyridin-4-yl)-10-methyl-9,10,11,12-tetrahydro-8H-[1,4]diazepino[5′,6′:4,5]thieno[3,2-f]quinolin-8-one], the 50% inhibitory concentration (IC50) worked out at 17 nM.

With `C[C@@H]1CNc2c(sc3ccc4nc(-c5cc(Cl)ncc5C(F)F)ccc4c23)C(=O)N1` [Example I-93, (R)-3-(2-chloro-5-(difluoromethyl)pyridin-4-yl)-10-methyl-9,10,11,12-tetrahydro-8H-[1,4]diazepino[5′,6′:4,5]thieno[3,2-f]quinolin-8-one], the half-inhibitory concentration (IC50) is 238 nM.

Turning to `C[C@@H]1CNc2c(sc3ccc4nc(-c5cc(Cl)nc(N6CCN(C)CC6)c5)ccc4c23)C(=O)N1` [Example I-94, (R)-3-(2-chloro-6-(4-methylpiperazin-1-yl)pyridin-4-yl)-10-methyl-9,10,11,12-tetrahydro-8H-[1,4]diazepino[5′,6′:4,5]thieno[3,2-f]quinolin-8-one], the IC50 was 43 nM.

For `C#Cc1cc(-c2ccc3c(ccc4sc5c(c43)NC[C@@H](C)NC5=O)n2)cc(N2CCN(C)CC2)n1` [Example I-95, (R)-3-(2-ethynyl-6-(4-methylpiperazin-1-yl)pyridin-4-yl)-10-methyl-9,10,11,12-tetrahydro-8H-[1,4]diazepino[5′,6′:4,5]thieno[3,2-f]quinolin-8-one], the IC50 is 42 nM.

Turning to `C[C@@H]1CNc2c(sc3ccc4nc(-c5cc(Cl)nc(CO)c5)ccc4c23)C(=O)N1` [Example I-97, (R)-3-(2-chloro-6-(hydroxymethyl)pyridin-4-yl)-10-methyl-9,10,11,12-tetrahydro-8H-[1,4]diazepino[5′,6′:4,5]thieno[3,2-f]quinolin-8-one], the concentration for half-maximal inhibition (IC50) came out at 60 nM.

As to `C#Cc1cc(-c2ccc3c(ccc4sc5c(c43)NC[C@@H](C)NC5=O)n2)cc(CO)n1` [Example I-98, (R)-3-(2-ethynyl-6-(hydroxymethyl)pyridin-4-yl)-10-methyl-9,10,11,12-tetrahydro-8H-[1,4]diazepino[5′,6′:4,5]thieno[3,2-f]quinolin-8-one], the half-inhibitory concentration (IC50) was 60 nM.

As to `C=Cc1cc(-c2ccc3c(ccc4sc5c(c43)NC[C@@H](C)NC5=O)n2)cc(CO)n1` [Example I-99, (R)-3-(2-(hydroxymethyl)-6-vinylpyridin-4-yl)-10-methyl-9,10,11,12-tetrahydro-8H-[1,4]diazepino[5′,6′:4,5]thieno[3,2-f]quinolin-8-one], the concentration for half-maximal inhibition (IC50) was determined as 2 nM.

As for `C[C@@H]1CNc2c(sc3ccc4nc(-c5cc(Cl)nc(C6=CCN(C)CC6)c5)ccc4c23)C(=O)N1` [Example I-100, (R)-3-(6-chloro-1′-methyl-1′,2′,3′,6′-tetrahydro-[2,4′-bipyridin]-4-yl)-10-methyl-9,10,11,12-tetrahydro-8H-[1,4]diazepino[5′,6′:4,5]thieno[3,2-f]quinolin-8-one], the half-maximal inhibitory concentration (IC50) came out at 62 nM.

With `C=Cc1cc(-c2ccc3c(ccc4sc5c(c43)NC[C@@H](C)NC5=O)n2)cc(C2=CCN(C)CC2)n1` [Example I-101, (R)-10-methyl-3-(1′-methyl-6-vinyl-1′,2′,3′,6′-tetrahydro-[2,4′-bipyridin]-4-yl)-9,10,11,12-tetrahydro-8H-[1,4]diazepino[5′,6′:4,5]thieno[3,2-f]quinolin-8-one], the half-inhibitory concentration (IC50) amounted to 8 nM.

On to `C#Cc1cc(-c2ccc3c(ccc4sc5c(c43)NC[C@@H](C)NC5=O)n2)cc(C2=CCN(C)CC2)n1` [Example I-102, (R)-3-(6-ethynyl-1′-methyl-1′,2′,3′,6′-tetrahydro-[2,4′-bipyridin]-4-yl)-10-methyl-9,10,11,12-tetrahydro-8H-[1,4]diazepino[5′,6′:4,5]thieno[3,2-f]quinolin-8-one], for which the IC50 was 8 nM.

Turning to `C[C@@H]1CNc2c(sc3ccc4nc(-c5cc(Cl)nc(C6CCN(C)CC6)c5)ccc4c23)C(=O)N1` [Example I-103, (R)-3-(2-chloro-6-(1-methylpiperidin-4-yl)pyridin-4-yl)-10-methyl-9,10,11,12-tetrahydro-8H-[1,4]diazepino[5′,6′:4,5]thieno[3,2-f]quinolin-8-one], the IC50 came to 46 nM.

Turning to `C#Cc1cc(-c2ccc3c(ccc4sc5c(c43)NC[C@@H](C)NC5=O)n2)c(NC)nn1` [Example I-104, (R)-3-(6-ethynyl-3-(methylamino)pyridazin-4-yl)-10-methyl-9,10,11,12-tetrahydro-8H-[1,4]diazepino[5′,6′:4,5]thieno[3,2-f]quinolin-8-one], the 50% inhibitory concentration (IC50) turned out to be 194 nM.

As to `C#Cc1cc(-c2ccc3c(ccc4sc5c(c43)NC[C@@H](C)NC5=O)n2)c(N(C)C)nn1` [Example I-105, (R)-3-(3-(dimethylamino)-6-ethynylpyridazin-4-yl)-10-methyl-9,10,11,12-tetrahydro-8H-[1,4]diazepino[5′,6′:4,5]thieno[3,2-f]quinolin-8-one], the half-inhibitory concentration (IC50) was determined as 118 nM.

In the case of `C=Cc1cc(-c2ccc3c(ccc4sc5c(c43)NC[C@@H](C)NC5=O)n2)cc(C2CCN(C)CC2)n1` [Example I-106, (R)-10-methyl-3-(2-(1-methylpiperidin-4-yl)-6-vinylpyridin-4-yl)-9,10,11,12-tetrahydro-8H-[1,4]diazepino[5′,6′:4,5]thieno[3,2-f]quinolin-8-one], the IC50 stood at 8 nM.
